Two molecules from patent US4125707A, “Protected pseudotrisaccharide intermediate for paromomycin and neomycin derivatives” (Societa' Farmaceutici Italia S.p.A., priority 1974, dated 1978) can be followed below.

≈ marks a conversion by molar mass, not a printed value. Like-named read-outs stand apart in the source and are kept apart here.

One data set relates to Staphilococcus aureus. Kind of data set: MIC, serial dilutions in liquid medium, Staphylococcus aureus. In kind it is cell-based. Particulars: 24 h. Here is the method:
(§1) The "in vitro" tests were carried out with the method of serial dilutions in liquid medium (Nutrient Broth Difco). The minimal inhibitory concentration (MIC) was determined after 24 h incubation at 37° C.

A further data set concerns Proteus sp.5. Kind of data set: MIC, serial dilutions in liquid medium, Proteus sp.5. Particulars: 24 h. The format is cell-based. The method, then: as §1
(§2) The resistance to the aminosidine is due, in the case of E. coli 526, to the production of an aminoglycoside inactivating enzyme (NKT I); the other strains are clinical isolates whose mechanism of resistance is not know.

A further data set relates to Proteus sp.3. As to the kind of experiment: MIC, serial dilutions in liquid medium, Proteus sp.3. Particulars: 24 h, 37° C, Nutrient Broth Difco. The format is cell-based. Here is the method: as §1, §2
The test system of a further data set is Proteus sp.4. As to the kind of experiment: MIC, serial dilutions in liquid medium, Proteus sp.4. The format is cell-based. To be noted: 24 h, 37° C, Nutrient Broth Difco. Here is the method:
as §1, §2

A short description of a further data set: acute toxicity in mice. Particulars: mouse, in vivo, sc, subcutaneous route. Here is the method:
There were also carried out comparative trials for determining the actue toxicity and ototoxicity. The LD50 values in mice by the subcutaneous route are: Aminosidine, 700 mg/kg; Compound 224, 1000 mg/kg.

Another data set deals with Proteus sp.2. Kind of data set: MIC, serial dilutions in liquid medium, Proteus sp.2. In kind it is cell-based. Particulars: 24 h. Here is the method: as §1, §2
Another data set relates to Tetrahymena geleei. As to the kind of experiment: growth inhibition of Tetrahymena geleei in liquid nutrient medium. In kind it is cell-based. Here is the method:
(§3) Other tests were carried out on algae and protozoa in order to evaluate the sensitivity of eukaryotic organisms to this new molecule (determination of MIC in liquid nutrient medium).
(§4) (*)Dose inhibiting 50% of growth (.LAMBDA.) or of protein

Another data set has as its system Ochromonas malhamensis. Kind of data set: growth inhibition of Ochromonas malhamensis in liquid nutrient medium. The format is cell-based. The method, then:
as §3, §4

Data set [1] deals with resistant strains (E. coli, Proteus sp.). Kind of data set: antibacterial activity on resistant strains. To be noted: for growth of resistant strains (in words): E. coli, Proteus sp., at concentrations at which 224 prevents growth. The format is cell-based. Here is the method: as §1, §2
Another data set relates to E.coli 526. Kind of data set: MIC, serial dilutions in liquid medium, E. coli 526 (resistant, NKT I). In kind it is cell-based, Escherichia coli. The method, then:
as §1, §2

The test system of another data set is Entamoeba histolytica. As to the kind of experiment: growth inhibition of Entamoeba histolytica in liquid nutrient medium. In kind it is cell-based. The method, then:
as §3

A further data set concerns Klebsiella pneumoniae. Kind of data set: MIC, serial dilutions in liquid medium, Klebsiella pneumoniae. In kind it is cell-based. To be noted: 24 h. The method, then: as §1
Data set [2] relates to ribosomes from Escherichia coli (7OS). As to the kind of experiment: inhibition of protein synthesis in cell-free system, 70S ribosomes. The format is biochemical. To be noted: for Activity (ID 50%), dose inhibiting 50% of protein synthesis: cell-free system, 70S ribosomes. The method, then: (§5) Finally, compound 224 was tested as an inhibitor of protein synthesis on cell-free systems containing ribosomes from Escherichia coli (7OS) or from Saccharomyces cerevisiae (8OS).
as §4

A further data set relates to Staphylococcus aureus. Kind of data set: therapeutic activity in mice experimentally infected with Staphylococcus aureus. In kind it is in vivo. To be noted: sc. Here is the method:
(§6) The therapeutic activity was assessed in mice experimentally infected with Staphylococcus aureus and treated (4 h after infection) with a single dose of the compound by the subcutaneous route.

For data set [3], the system named is ribosomes from Saccharomyces cerevisiae (8OS). Kind of data set: inhibition of protein synthesis in cell-free system, 80S ribosomes. In kind it is biochemical. The method, then:
as §5, §4

The test system of the next data set is algae and protozoa. Kind of data set: growth of algae and protozoa. In kind it is cell-based. To be noted: eukaryotic microorganisms, Table 2. The method, then: as §3
Another data set concerns Proteus sp.1. Kind of data set: MIC, serial dilutions in liquid medium, Proteus sp.1. The format is cell-based. Particulars: 24 h, 37° C, Nutrient Broth Difco. Here is the method: as §1, §2
In the next data set the test system is E.coli K12. As to the kind of experiment: MIC, serial dilutions in liquid medium, E. coli K12. The format is cell-based. To be noted: Escherichia coli, 24 h, 37° C, Nutrient Broth Difco. Here is the method: as §1
The next data set relates to Euglena gracilis. Kind of data set: growth inhibition of Euglena gracilis in liquid nutrient medium. The format is cell-based. Here is the method: as §3, §4
A further data set deals with Escherichia coli B. Kind of data set: MIC, serial dilutions in liquid medium, Escherichia coli B. The format is cell-based. To be noted: 24 h, 37° C, Nutrient Broth Difco. Here is the method:
as §1

Data set [4] relates to bacteria sensitive to the aminosidine. As to the kind of experiment: antibacterial activity in vitro and in vivo on bacteria sensitive to aminosidine. Here is the method: as §1, §6
[5] abbreviates: 37° C, Nutrient Broth Difco, read-out: MIC.

One may read the MIC as the smallest concentration in the dilution series that meets the test's criterion for growth inhibition. Usually LD50 stands for the dose expected to kill half of the subjects tested. A high value points to a less toxic substance.

Take `NC[C@@H]1O[C@H](O[C@H]2[C@@H](O)[C@H](O[C@@H]3[C@@H](O)[C@H](N)C[C@H](N)[C@H]3O[C@H]3O[C@H](CO)[C@@H](O)[C@H](O)[C@H]3N)O[C@@H]2CO)[C@H](N)[C@@H](O)[C@@H]1O` [Aminosidine, reference compound]: the MIC is 3.1 µg/mL (≈ 5.04 µM) against Staphilococcus aureus; over 500 µg/mL in the data set with Proteus sp.5; over 500 µg/mL in the data set on Proteus sp.3; over 500 µg/mL against Proteus sp.4; over 500 µg/mL in the data set with Proteus sp.2; over 500 µg/mL in the data set with E.coli 526 (Escherichia coli, 526, 24 h). The minimum inhibitory concentration (MIC) was 1 µg/mL (≈ 1.62 µM) with Klebsiella pneumoniae, 500 µg/mL (≈ 812 µM) with Proteus sp.1, 500 µg/mL (≈ 812 µM) against E.coli K12 and 6.2 µg/mL (≈ 10.1 µM) against Escherichia coli B. This molecule came in with an LD50 in “acute toxicity in mice” of 700 mg/kg. Moreover, the “Activity (ID 50%), dose inhibiting 50% of growth” value in the data set with Tetrahymena geleei came to 12.5; in the data set on Ochromonas malhamensis, 1.56; with Entamoeba histolytica, 1; in the data set on Euglena gracilis it was 12.5. Also, the “growth of resistant strains (in words)” value in data set [1] was “completely inactive”. The “Activity (ID 50%), dose inhibiting 50% of protein synthesis” value in [2] is reported as 30; in data set [3] it was 65. Further, in the data set on Staphylococcus aureus (4 h, read-out: DT50), the ED50 was 25 mg/kg. The “effect on growth of algae and protozoa (in words)” value in the data set on algae and protozoa is listed as “strong inhibitor of the organisms tested”.

With `NC[C@@H]1O[C@H](O[C@H]2[C@@H](O)[C@H](O[C@@H]3[C@@H](O)[C@H](N)C[C@H](N)[C@H]3O[C@H]3O[C@H](CN)[C@@H](O)[C@H](O)[C@H]3O)O[C@@H]2CO)[C@H](N)[C@@H](O)[C@@H]1O` [compound 224], the MIC in the data set on Staphilococcus aureus (setting [5]) was 6.2 µg/mL (≈ 10.1 µM); with Proteus sp.5 (setting [5]) it was 250 µg/mL (≈ 406 µM); against Proteus sp.3, 125 µg/mL (≈ 203 µM); against Proteus sp.4, 125 µg/mL (≈ 203 µM); with Proteus sp.2 (setting [5]) it was 250 µg/mL (≈ 406 µM); in the data set on E.coli 526 (Escherichia coli, 526, 24 h, 37° C, Nutrient Broth Difco, resistant strain, read-out: MIC) it was 100 µg/mL (≈ 162 µM). Besides, the MIC with Klebsiella pneumoniae (setting [5]) was determined as 2 µg/mL (≈ 3.25 µM); in the data set with Proteus sp.1 it was 125 µg/mL (≈ 203 µM); with E.coli K12, 125 µg/mL (≈ 203 µM); against Escherichia coli B, 12.5 µg/mL (≈ 20.3 µM). This molecule also returned a 50% lethal dose (LD50) in “acute toxicity in mice” of 1000 mg/kg. Moreover, the “Activity (ID 50%), dose inhibiting 50% of growth” value is over 100 in the data set with Tetrahymena geleei, over 100 in the data set on Ochromonas malhamensis, over 20 in the data set on Entamoeba histolytica and over 100 in the data set with Euglena gracilis. The “growth of resistant strains (in words)” value in [1] was “prevents the growth of resistant strains”. The “antibacterial activity compared with aminosidine, resistant strains (in words)” value in data set [1] (resistant strains) was “clearly superior on resistant strains”. The “selective inhibition of protein synthesis (in words)” value in [2] (7OS in comparison with 8OS ribosomes) was “selective inhibition of protein synthesis”. Moreover, the entries for the “Activity (ID 50%), dose inhibiting 50% of protein synthesis” value in data set [2] and in [3] were 40 and over 500, respectively. Moreover, the ED50 with Staphylococcus aureus (mice, single subcutaneous dose 4 h after infection, read-out: DT50 (the source's name)) is 50 mg/kg. The “effect on growth of algae and protozoa (in words)” value in the data set with algae and protozoa was “does not affect the growth of algae and protozoa”. The “antibacterial activity in vitro and in vivo (in words)” value in data set [4] (bacteria sensitive to the aminosidine) was “remarkable antibacterial activity in vitro and in vivo”. The “antibacterial activity compared with aminosidine, sensitive strains (in words)” value in [4] (sensitive strains) was “of the same order of magnitude of that of aminosidine”.
